Consider two compounds from PMC4529401 (Pharmaceutical research, 2015).

Read-outs that look alike come from different tables or passages of the source.

Experiment [1] has as its target T1, human OCT2 (Homo sapiens, UniProt O15244).
T1 sequence (O15244 1-555): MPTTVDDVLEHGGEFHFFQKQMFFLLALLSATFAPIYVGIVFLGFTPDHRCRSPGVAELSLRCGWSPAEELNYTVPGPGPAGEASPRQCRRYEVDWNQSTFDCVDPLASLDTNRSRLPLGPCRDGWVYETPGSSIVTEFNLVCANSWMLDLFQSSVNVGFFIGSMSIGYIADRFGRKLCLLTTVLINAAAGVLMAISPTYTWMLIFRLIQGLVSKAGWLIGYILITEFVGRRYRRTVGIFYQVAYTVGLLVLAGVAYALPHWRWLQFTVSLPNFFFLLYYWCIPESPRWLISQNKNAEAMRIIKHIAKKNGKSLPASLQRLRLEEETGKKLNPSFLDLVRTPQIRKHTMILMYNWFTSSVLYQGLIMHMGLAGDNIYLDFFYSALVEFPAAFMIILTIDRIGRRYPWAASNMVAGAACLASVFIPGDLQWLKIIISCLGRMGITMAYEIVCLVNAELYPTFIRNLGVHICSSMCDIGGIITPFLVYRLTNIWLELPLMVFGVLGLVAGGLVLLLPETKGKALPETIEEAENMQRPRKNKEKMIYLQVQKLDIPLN
As to the kind of experiment: Transport of TEA and MPP in CHO cells that stably expressed human OCT2. It counts as cell-based. The conditions noted are these: for true Kt for OCT2-mediated transport (suggested): authors' estimate in the discussion; for Ktapp of uptake: 30 sec uptakes.

The target in experiment [2] is T1, human OCT2. As to conditions: ref Morales & Wright, unpublished; cited from earlier work.
Experiment [3] concerns the target T1, human OCT2. As to the kind of experiment: Literature kinetic parameters for OCT2-mediated transport, cells. As to conditions: median of the values in Table I. The experiment is classed as cell-based.
Where [4] appears, read: OCT2 knockdown cells (shRNA #6), paired studies, three (TEA) or four (MPP).
[5] abbreviates: control (fully expressing) cells, paired studies, three (TEA) or four (MPP).
Where [6] appears, read: control (unshaken), 96 well plate, n=3.
[7] abbreviates: shaken (reciprocal, 13 Hz), 96 well plate, n=3.

As for `C[n+]1ccc(-c2ccccc2)cc1` [MPP, 1-Methyl-4-phenylpyridinium], on human OCT2 [1] (24 well plate, flat-bed orbital shaker 300 rpm (5 Hz), [3H] substrate, P < 0.05), the “increase of 30 sec uptake by shaking” value came out at 50%. Moreover, the Jmax at human OCT2 [1] (setting [4]) is listed as 6.1 ± 1.2 pmol cm^−2 min^−1; on human OCT2 [1] (Table I, present study) it was 35 pmol cm^−2 min^−1; at human OCT2 [1] (setting [5]) it was 64.7 ± 16.6 pmol cm^−2 min^−1; at human OCT2 [1] (setting [6]), 35.4 ± 1.4 pmol cm^−2 min^−1; on human OCT2 [1] (setting [7]), 37.4 ± 2.5 pmol cm^−2 min^−1. The “apparent Kt” value was 3.8 ± 0.5 µM on human OCT2 [1] (setting [4]) and 16.6 ± 4.0 µM at human OCT2 [1] (setting [5]). Moreover, the Ktapp at human OCT2 [1] (OCT2 knockdown cells, six paired experiments (n = 6)) turned out to be 3.3 ± 0.9 µM; on human OCT2 [1] (Table I, present study), 9 µM. Besides, at human OCT2 [1], the “true Kt for OCT2-mediated transport (suggested)” value is 1 to 2 µM. Moreover, on human OCT2 [1] (calculated from present study Jmax and a 1500 µm UWL), the “Winne ‘bias’” value is 7 µM. The “maximum transport rates, fold lower than in parental OCT2-expressing cells” value at human OCT2 [1] (cells with reduced OCT2 expression (RNAi)) turned out to be 11 fold. In addition, the Ktapp of uptake was 6.5 ± 0.4 µM on human OCT2 [1] (setting [6]) and 4.5 ± 0.5 µM on human OCT2 [1] (setting [7]). In addition, the “estimated true Kt” value at human OCT2 [1] (intercept of the Jmax vs Ktapp relationship (linear regression)) is 1.8 ± 1.6 µM. The “reduction in the 15 sec uptake in OCT2 knockdown cells” value at human OCT2 [1] (knockdown (shRNA #6) vs control cells, […] [14C]TEA plus 1.0 nM [3H]MPP) is on record as 55%. For the same compound, the “reduction of Jmax in OCT2 knockdown cells” value on human OCT2 [1] (knockdown vs control cells) turned out to be 90%.
On to `CN(C)C(=N)N=C(N)N` [Metformin], for which, on human OCT2 [2], the Jmax is 265 pmol cm^−2 min^−1 and the Ktapp is recorded as 378 µM. Also, the “true Kt for OCT2-mediated transport (suggested)” value on human OCT2 [1] is ~ 1000 µM. Besides, the “median Jmax” value at human OCT2 [3] is recorded as ~ 350 pmol cm^−2 min^−1.
